Results taken from US8110570B2, “Modulators of acetyl-coenzyme A carboxylase and methods of use thereof” (Cropsolution, Inc., priority 2008, dated 2012).

Biological target: T1, hACC1-CT (Homo sapiens, UniProt Q13085)
T1 construct: PCR primers were designed for full-length hACC1 and hACC2 using GenBank submissions AY237919 and AJ575592, respectively; His tag (C); made in house; host or cells: baculovirus, Sf9 insect cells
Assay: acetyl-CoA/malonyl-CoA isotope exchange assay, CT half-reaction
Format: biochemical
Method: Overall ACC activity is comprised of two half-reactions, the BC reaction (the ATP-dependent carboxylation of biotin) and the CT reaction (the transfer of the carboxyl group from biotin to acetyl-CoA to form malonyl-CoA). Thus, it is of interest to localize the site of action of ACC inhibitors. To this end, representative compounds are tested in an acetyl-CoA/malonyl-CoA isotope exchange reaction which specifically measures the CT-half reaction. This assay is performed with slight modifications of published procedures (Gregolin et al., J Biol Chem, 1968, 243:4227-4235; Rendina et al., J Agric Food Chem, 1990, 38:1282-1287). Briefly, the reaction mixture (50 μL) contained 50 mM Hepes (pH 7.4), 20 mM K-citrate, 1.5 mM MgSO4, 4 mM malonyl-CoA, 1.67 mM acetyl-CoA, 0.34 mM [^14C]acetyl-CoA (about 60 mCi/mmol), 0.75 mg/mL BSA, and 1% (v/v) DMSO with or without inhibitor. Reactions are initiated by the addition of hACCl (0.3 μg) or hACC2 (0.15 μg) enzyme and incubated at 37° C. for 10 min. Reactions are stopped by addition of a 0.2M sodium arsenate solution containing 1U of phosphotransacetylase (13.5 μL) and incubation at room temperature for 30 min. […] The samples are then resuspended in water (200 μL), added to scintillation cocktail (3 mL), and counted in a scintillation counter to quantify radiolabel incorporated into malonyl-CoA. […]

`COc1cc(C(=O)N2CCC3(CC2)NC(=O)c2cc(Br)ccc2O3)nc2c(OC)cccc12` [Compound 2, 6-Bromo-1′-[(4,8-dimethoxyquinoline-2-yl)carbonyl]spiro[2H-1,3-benzoxazine-2,4′-piperidine]-4(3H)-one] gave an IC50 of 100 nM.
